Measured values from publication PMC9820118, “Betulin Acid Ester Derivatives Inhibit Cancer Cell Growth by Inducing Apoptosis through Caspase Cascade Activation: A Comprehensive In Vitro and In Silico Study” (International Journal of Molecular Sciences, 2022).
Where two headings read alike, the source gives them in different places.

What was measured:
MV4-11 cells = assay: Antiproliferative activity, MTT assay, MV4-11 leukemia cells; assay type: cell-based, human; conditions: for IC50: 72 h incubation, MTT, read-out: Growth inhibition IC50, leukemia cell line MV4-11; for Calculated Selectivity Index SI, MV4-11: IC50 BALB/3T3 / IC50 MV4-11
Protocol: (§1) The in vitro antiproliferative activity tests have been conducted against four human cancer cell lines: MV4-11 biphenotypic B myelomonocytic leukemia cell line, A549 lung carcinoma cell line, MCF-7 breast carcinoma cell line, PC-3 prostate carcinoma cell line and one normal BALB/3T3 mouse fibroblast cell line. […] All tested compounds were dissolved in DMSO and diluted with a culture medium to a desired concentration. […] Cell viability, after 72 h incubation of the cells with tested compounds, was determined using tetrazolinum dye MTT (for MV4-11 cells) or sulforhodamine B (SRB test, for MCF-7, A549, PC-3, BALB/3T3 cells) colorimetric assays.
(§2) Human biphenotypic B myelomonocytic leukemia MV4-11, murine normal fibroblast BALB/3T3 cells were obtained from the American Type Culture Collection (USA); and human lung carcinoma A549, human breast cancer MCF-7 and human prostate adenocarcinoma PC-3 were obtained from the European Collection of Authenticated Cell Cultures (UK).
(§3) MV4-11 and PC-3 cells were cultured in RPMI 1640 medium (HIIET PAS, Poland) with 1.0 mM sodium pyruvate (only MV4-11) and 10% fetal bovine serum (FBS) (all from Merck, Darmstadt, Germany). A549 cells were cultured in RPMI 1640 + Opti-MEM (1:1) ((HIIET PAS, Poland and Gibco, UK) supplemented with 5% fetal bovine serum (Merck, Darmstadt, Germany). The MCF-7 cells were cultured in Eagle medium (HIIET PAS, Poland) supplemented with 8 mg/mL of insulin and 1% of MEM NON-Essential amino acid (all Merck, Darmstadt, Germany). Normal fibroblasts BALB/3T3 cells were cultured in DMEM medium (Gibco, UK) supplemented with 10% fetal bovine serum and 1.0 mM sodium pyruvate (all from Merck, Darmstadt, Germany). All culture media were supplemented with 2 mM L-glutamine (Merck, Darmstadt, Germany), 100 units/ml penicillin, (Polfa Tarchomin S.A., Poland) and 100 µg/mL streptomycin (Merck, Darmstadt, Germany). All cell lines were grown at 37 °C in a 5% CO2 humidified atmosphere.
(§4) The solutions of the tested compounds were prepared by dissolving the substances in DMSO to the desired concentration (25 mM). Then, the tested compounds were diluted in a culture medium to reach the final concentrations. Before addition of the tested compounds (24 h prior), the cells were plated in 96-well plates (Sarstedt, Germany) at a density of 1 × 10^4, 0.75 × 10^4 (MCF-7) or 0.5 × 10^4 (A549) cells per well. The assay was performed after 72 h of exposure to 100, 10, 1 and 0.1 µM concentration of the tested agents. […] The SRB method determined the amount of cellular proteins. The concentration of the colorimetric probe (formazan in MTT or sulforhodamine B in SRB method) was determined by an optical density measurement using a standard microplate reader for 96-well plates. After optical density measurement, using the data of the mean absorbances of control cells (AbCC), the absorbances of cells treated by the tested compound (AbTr) (for each concentration separately) and the absorbance of the cultured medium (AbCM) the % of cell proliferation inhibition was calculated according to the following formula: % inh. cells proliferation=100−AbTr−AbCM/AbCC−AbCM×100
(§5) From the obtained proliferation inhibition values, effect-concentration curves of the compound used were plotted. […] IC50 values were calculated for each experiment separately using the Prolab-3 system based on Cheburator 0.4 software [36] and mean values (±SD) are presented. Each compound in each concentration was tested in triplicate in a single experiment, which was repeated 3–5 times.

in vitro = conditions: mouse
Protocol: as §1, §2, §3, §4, §5

[1] = Experimental lipophilicity by RP-TLC; conditions: for RM0: RP-TLC, RP-18 F254S, acetone / Tris buffer pH 7.4, extrapolated to zero acetone; for log PTLC: from RM0 by calibration curve with eight reference compounds
Protocol: The retention mechanism in the RP-TLC method is based on the partition of substances between two phases. Silica gel (RP-18 F254S plates) was used as the hydrophobic stationary phase. In contrast, the hydrophilic mobile phase was a binary mixture of acetone and an aqueous solution of TRIS buffer.
Chromatographic analysis by RP-TLC was performed an aluminum backed silica gel RP-18 F254S
phenylanthracene] and tested betulin derivatives were dissolved in chloroform to obtain a
concentration of 2 mg/mL. The prepared solutions were spotted on the plates in the amount of 2 μL.
the next step, the chromatographic chambers were saturated 30 min of the appropriate mobile phases
consisting of a mixture of acetone (Merck, Darmstadt, Germany) and aqueous solution of buffer Tris
[(tris-hydroxymethyl)aminomethane] (Fluka, Loughborough, 0.2 M, pH 7.4). The amount of acetone in
the mobile phase were in the range 60-90% in 5% increments. The chromatograms were developed for
each compound in triplicate at room temperature. The spots of betulin derivatives were visualized by
spraying the plates with the mixture of ethanol and concentrated sulfuric acid (10:1, v/v) and heating
The retardation factor (Rf) were calculated according to the equation below:
(a-the distance from the start line to the spot center, b-the distance from the start line to the mobile
The RM values were calculated by the Bate-Smith and Westall equation:
The RM0 parameters were obtained by extrapolating on the acetone content to zero, according to the
Soczewiński-Wachtmeister equation:
(C-the percentage concentration of acetone in the mobile phase, b-the slope of the regression plot).
The calibration curve was determined using eight reference compounds.
compounds were determined under the same conditions as for betulin derivatives (Table S1).

A549 cell line = assay: Antiproliferative activity, SRB assay, A549 lung carcinoma cells; conditions: for IC50: Homo sapiens, A549, 72 h, read-out: Cytotoxicity IC50 against A549 cell line; for Calculated Selectivity Index SI, A549: IC50 BALB/3T3 / IC50 A549
Protocol: as §1, §2, §3, §4, §5

MCF-7 cell line = assay: Antiproliferative activity, SRB assay, MCF-7 breast carcinoma cells; conditions: for IC50: Homo sapiens, MCF7, 72 h, read-out: Cytotoxicity IC50 against MCF-7 cell line; for Calculated Selectivity Index SI, MCF-7: IC50 BALB/3T3 / IC50 MCF-7
Protocol: as §1, §2, §3, §4, §5

PC-3 cell line = assay: Antiproliferative activity, SRB assay, PC-3 prostate carcinoma cells; conditions: for IC50: Homo sapiens, PC-3, 72 h, read-out: Cytotoxicity IC50 against PC-3 cell line; for Calculated Selectivity Index SI, PC-3: IC50 BALB/3T3 / IC50 PC-3
Protocol: as §1, §2, §3, §4, §5

[2] = Solubility in DMSO for stock preparation; assay type: physicochemical
[3] = Cytotoxicity, SRB assay, normal BALB/3T3 fibroblasts; conditions: mouse
Protocol: as §1, §2, §3, §4, §5

Row | Structure (SMILES) | IC50 (MV4-11 cells; Homo sapiens, MV4-11, 72 h) | Calculated Selectivity Index SI, MV4-11 (MV4-11 cells) | IC50 at 72 h (in vitro) | RM0 [1] | IC50 (A549 cell line) | Calculated Selectivity Index SI, A549 (A549 cell line) | IC50 (MCF-7 cell line) | Calculated Selectivity Index SI, MCF-7 (MCF-7 cell line) | Antiproliferative Activity, PC-3 (PC-3 cell line; +/− summary, IC50 vs betulin 1) | IC50 (PC-3 cell line) | Calculated Selectivity Index SI, PC-3 (PC-3 cell line) | IC50 (MV4-11 cells) | solubility in DMSO [2] | IC50 at 72 h [3] | IC50 at 72 h ([3]; BALB/3T3 normal fibroblast cells) | log PTLC [1]
1 | C#CCNC(=O)CCC(=O)OC[C@]12CC[C@@H](C(=C)C)C1C1CCC3[C@@]4(C)CC[C@H](O)C(C)(C)C4CC[C@@]3(C)[C@]1(C)CC2 (some centres unmarked) [2a] | 2.03 µM | 1.5 | 3.1 µM | 4.863 | 19.2 µM | 0.2 | 29.8 µM | 0.1 | + | 4.47 µM | 0.7 |  |  |  |  | 
2 | C#CCNC(=O)C(C)=CC(=O)OCC12CCC(C(=C)C)C1C1CCC3C4(C)CCC(O)C(C)(C)C4CCC3(C)C1(C)CC2 (centres unmarked) [3a] | 12.5 µM |  |  | 5.326 |  |  |  |  |  | 15.3 µM |  |  |  |  |  | 
3 | C=C(C)C1CCC2(COC(=O)C=C(C)C(=O)N3CCOCC3)CCC3(C)C(CCC4C5(C)CCC(O)C(C)(C)C5CCC43C)C12 (centres unmarked) [3b] | < 10 µM | 2.8 | 24.7 µM | 5.086 | 7.42 µM | 3.3 | 12.3 µM | 2.0 |  | 24.8 µM | 1.0 | 8.9 µM |  |  |  | 
4 | C=C(C)C1CCC2(COC(=O)C=C(C)C(=O)N3CCCCC3)CCC3(C)C(CCC4C5(C)CCC(O)C(C)(C)C5CCC43C)C12 (centres unmarked) [3c] |  |  |  | 5.650 |  |  |  |  |  |  |  |  | not soluble in DMSO |  |  | 
5 | C=C(C)C1CCC2(COC(=O)C=C(C)C(=O)N3CCSCC3)CCC3(C)C(CCC4C5(C)CCC(O)C(C)(C)C5CCC43C)C12 (centres unmarked) [3d] |  | 11.8 | > 50 µM | 5.711 | 6.78 µM | 7.4 | 34 µM | 1.5 |  | 46.1 µM | 1.1 |  |  |  |  | 
6 | C#CCNC(=O)CCCC(=O)OC[C@]12CC[C@@H](C(=C)C)C1C1CCC3[C@@]4(C)CC[C@H](O)C(C)(C)C4CC[C@@]3(C)[C@]1(C)CC2 (some centres unmarked) [4a] |  | 1.2 | 5.02 µM | 5.158 | 29.1 µM | 0.2 | 50 µM | 0.1 |  |  | 0.3 |  |  |  |  | 
7 | C=C(C)[C@@H]1CC[C@]2(COC(=O)CCCC(=O)N3CCOCC3)CC[C@]3(C)C(CCC4[C@@]5(C)CC[C@H](O)C(C)(C)C5CC[C@]43C)C12 (some centres unmarked) [4b] | < 10 µM | 5.9 | 36.8 µM | 4.961 | 8.47 µM | 4.3 | 21.6 µM | 1.7 |  | 22.7 µM | 1.6 | 6.27 µM |  |  |  | 
8 | C=C(C)[C@@H]1CC[C@]2(COC(=O)CCCC(=O)N3CCCCC3)CC[C@]3(C)C(CCC4[C@@]5(C)CC[C@H](O)C(C)(C)C5CC[C@]43C)C12 (some centres unmarked) [4c] |  |  |  | 5.012 |  |  |  |  |  |  |  |  | not soluble in DMSO |  |  | 
9 | C=C(C)[C@@H]1CC[C@]2(COC(=O)CCCC(=O)N3CCSCC3)CC[C@]3(C)C(CCC4[C@@]5(C)CC[C@H](O)C(C)(C)C5CC[C@]43C)C12 (some centres unmarked) [4d] | < 10 µM | 7.1 | > 50 µM | 5.008 | 40.2 µM | 1.2 | 50 µM | 1.0 |  | 50 µM | 1.0 | 7.04 µM |  |  |  | 
10 | C=C(C)[C@@H]1CC[C@]2(COC(=O)CCCCCCCCCC(=O)N3CCCCC3)CC[C@]3(C)C(CCC4[C@@]5(C)CC[C@H](O)C(C)(C)C5CC[C@]43C)C12 (some centres unmarked) [5c] |  |  |  | 5.768 |  |  |  |  |  |  |  |  | not soluble in DMSO |  |  | 
11 | C=C(C)[C@@H]1CC[C@]2(COC(=O)c3cccc(C(=O)N4CCCCC4)c3)CC[C@]3(C)C(CCC4[C@@]5(C)CC[C@H](O)C(C)(C)C5CC[C@]43C)C12 (some centres unmarked) [7c] |  |  |  | 5.773 |  |  |  |  |  |  |  |  | not soluble in DMSO |  |  | 
12 | C#CC1(NC(=O)c2cccc(C(=O)OC[C@]34CC[C@@H](C(=C)C)C3C3CCC5[C@@]6(C)CC[C@H](O)C(C)(C)C6CC[C@@]5(C)[C@]3(C)CC4)c2)CCCCC1 (some centres unmarked) [7e] | > 100 µM |  |  | 5.746 |  |  |  |  |  |  |  |  |  |  |  | 
13 | C=C(C)[C@@H]1CC[C@]2(CO)CC[C@]3(C)[C@H](CC[C@@H]4[C@@]5(C)CC[C@H](O)C(C)(C)[C@@H]5CC[C@]43C)[C@@H]12 [Betulin 1, betulin] | 18.2 µM | 1.8 |  |  | 15.5 µM | 2.0 | 38.8 µM | 0.8 |  | 32.5 µM | 1.0 |  |  | 31.8 µM |  | 
14 | COc1cccc2c1C(=O)c1c(O)c3c(c(O)c1C2=O)C[C@@](O)(C(=O)CO)C[C@@H]3O[C@H]1C[C@H](N)[C@H](O)[C@H](C)O1 [Doxorubicin, doxorubicin, reference compound] | 0.01 µM | 18.0 |  |  | 0.04 µM | 4.5 | 0.08 µM | 2.3 |  | 0.43 µM | 0.4 |  |  |  | 0.18 µM | 
15 | C=C(C)C1CCC2(COC(=O)C=C(C)C(=O)O)CCC3(C)C(CCC4C5(C)CCC(O)C(C)(C)C5CCC43C)C12 (centres unmarked) [compound 3] | 19.9 µM | 1.9 | 37.2 µM | 5.410 | 28.7 µM | 1.3 | 38.2 µM | 1.0 |  | 34.4 µM | 1.1 |  |  |  |  | 
16 | C=C(C)[C@@H]1CC[C@]2(COC(=O)CCCC(=O)O)CC[C@]3(C)C(CCC4[C@@]5(C)CC[C@H](O)C(C)(C)C5CC[C@]43C)C12 (some centres unmarked) [compound 4] | 24 µM | 1.6 | 37.9 µM | 5.250 | 32.5 µM | 1.2 | 43.9 µM | 0.9 |  | 36.2 µM | 1.0 |  |  |  |  | 
17 | C=C(C)[C@@H]1CC[C@]2(COC(=O)c3ccccc3C(=O)O)CC[C@]3(C)C(CCC4[C@@]5(C)CC[C@H](O)C(C)(C)C5CC[C@]43C)C12 (some centres unmarked) [compound 6] | 34.4 µM |  |  | 5.979 |  |  |  |  |  |  |  |  |  |  |  | 8.283
18 | C=C(C)[C@@H]1CC[C@]2(COC(=O)c3cccc(C(=O)O)c3)CC[C@]3(C)C(CCC4[C@@]5(C)CC[C@H](O)C(C)(C)C5CC[C@]43C)C12 (some centres unmarked) [compound 7] | 23.5 µM |  |  | 5.817 |  |  |  |  |  |  |  |  |  |  |  | 
19 | C=C(C)C1CCC2(COC(=O)C=CC(=O)O)CCC3(C)C(CCC4C5(C)CCC(O)C(C)(C)C5CCC43C)C12 (centres unmarked) [compound 8] | 15.2 µM |  |  | 5.129 |  |  |  |  |  |  |  |  |  |  |  | 7.150
20 | C=C(C)[C@@H]1CC[C@]2(COC(=O)CSCC(=O)O)CC[C@]3(C)C(CCC4[C@@]5(C)CC[C@H](O)C(C)(C)C5CC[C@]43C)C12 (some centres unmarked) [compound 9] | 26.4 µM |  |  | 6.087 |  |  |  |  |  |  |  |  |  |  |  | 
